Reference: PMC9806890, “Purification and biochemical characterization of two laccase isoenzymes isolated from Trichoderma harzianum S7113 and its application for bisphenol A degradation” (Microbial Cell Factories, 2023)

Legend:
[1] = tested on: T1, Lac B (LacB); assay: absorbance at […] nm, Lineweaver-Burk; format: biochemical, Trichoderma harzianum; details: 0.1 M sodium citrate, pH 4.5; ABTS 0.025-0.4 mM; O2 co-substrate
T1 construct: 48 kDa by SDS-PAGE

[2] = tested on: T2, Lac A (LacA); assay: absorbance at […] nm, Lineweaver-Burk; format: biochemical, Trichoderma harzianum; details: 0.1 M sodium citrate, pH 4.5; ABTS 0.025-0.4 mM; O2 co-substrate
T2 construct: 63 kDa by SDS-PAGE

Km [1]: 64 µM
Km [2]: 100 µM
SMILES: CCn1c(=NN=c2sc3cc(S(=O)(=O)O)ccc3n2CC)sc2cc(S(=O)(=O)O)ccc21 [ABTS, 2,2ʹ-Azinobis-(3-ethylbenzothiazoline-6-sulfonic acid)]
